Assay results reported in US9896668B2, “Substrate-mimetic AKT inhibitor” (University of South Florida, priority 2006, dated 2018).
Square brackets hold non-standard residues; d marks the D form. Peptide text beside a SMILES is read from it. * marks the point of attachment. 4Abz = Nc1ccc(C(=O)O)cc1; NHBn = c1ccc(CN*)cc1

Molecular target: Akt1 (Homo sapiens, UniProt P31749)
Experiment: in vitro inhibition of Akt, fluorescence polarization assay (IMAP Akt Assay Kit)
Assay type: biochemical
Protocol: FIG. 9 is a table of investigations into the hydrophobic interactions between the GSK-3 residues central hydrophobic contacts and Akt. The values reported are an average of three independent binding curves using an IMAP™ Akt Assay Kit (Molecular Devices). Reactions were conducted in wells with 20.0 μL of 10 mM Tris-HCl (pH 7.2), 10 mM MgCl2, 0.1% BSA, 0.05% NaN3, 1 mM DTT, 100 nM 5FAM-[…]-COOH, 5 μM ATP, Akt1, and inhibitor. Reaction mixtures were incubated for 1 h at room temperature and then quenched with 60 μL of the IMAP-binding solution. The reactions were equilibrated for 1 h at room temperature then data points were collected and analyzed.
FIG. 14 is a table showing the optimization of C-terminal and central substituents for non-peptide inhibitors. ^a Reported values are an average of three independent-binding curves utilizing an IMAP® Akt Assay Kit (Molecular Devices). […] The reactions were equilibrated for 1 h at room temperature then data points were collected and analyzed. […]
Peptidomimetic inhibitors were generated directly from the minimal substrate sequence by systematic replacement of the non-critical amino acids and tested for in vitro inhibition of Akt using a fluorescence polarization assay system, shown in FIG. 3. […]

Chain of Akt1 (P31749 whole entry): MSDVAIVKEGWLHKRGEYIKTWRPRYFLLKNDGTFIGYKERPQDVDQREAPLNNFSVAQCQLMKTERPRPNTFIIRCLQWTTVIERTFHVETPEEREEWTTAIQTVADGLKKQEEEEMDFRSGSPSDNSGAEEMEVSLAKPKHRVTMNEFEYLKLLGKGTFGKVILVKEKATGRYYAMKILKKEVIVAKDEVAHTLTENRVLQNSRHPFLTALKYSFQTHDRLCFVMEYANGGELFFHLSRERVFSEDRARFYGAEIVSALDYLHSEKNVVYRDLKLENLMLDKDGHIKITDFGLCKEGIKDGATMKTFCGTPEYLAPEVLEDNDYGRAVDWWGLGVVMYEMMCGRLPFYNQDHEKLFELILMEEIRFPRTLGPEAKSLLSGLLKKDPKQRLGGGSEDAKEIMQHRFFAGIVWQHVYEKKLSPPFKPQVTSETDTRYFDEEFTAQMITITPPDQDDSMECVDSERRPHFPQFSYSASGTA

Question: For `CC(=O)NCC(=O)N[C@@H](CCCNC(=N)N)C(=O)N1CCC[C@H]1C(=O)N[C@@H](CCCNC(=N)N)C(=O)Nc1ccc(C(=O)N[C@H](C(=O)N[C@@H](Cc2ccccc2)C(=O)NCc2ccccc2)C(C)C)cc1` [Inhibitor 10] (Ac-GRPR[4Abz]VF-NHBn), which IC50 (IMAP Akt Assay Kit, 5 μM ATP, 100 nM 5FAM-GRPRTSSFAEG-COOH, 1 h room temperature) is on record?
Answer: 28 µM

Question: What about the “fold increase in potency/activity versus parent inhibitor” value (in vitro Akt inhibition) of the same compound?
Answer: 10 fold
